Reference: patent publication US10538555B2, “Macrocyclic inhibitors of the PD-1/PD-L1 and CD80(B7-1)/PD-L1 protein/protein interactions” (BRISTOL-MYERS SQUIBB COMPANY, priority 2014, dated 2020)
Where a SMILES comes first, the peptide text is derived from it. Bridges are numbered along the chain shown (N, C = ends). [ ]: non-standard residue; d: D form. ξ: configuration not given here. Trp(1-CH2COOH) = N[C@@H](Cc1cn(CC(=O)O)c2ccccc12)C(=O)O; Phe(4-F) = N[C@@H](Cc1ccc(F)cc1)C(=O)O; d(cisHyp) = O=C(O)[C@H]1C[C@@H](O)CN1; Bta = N[C@@H](Cc1csc2ccccc12)C(=O)O; NMeIle(3ξ) = CCC(C)[C@H](NC)C(=O)O; Hyp = O=C(O)[C@@H]1C[C@@H](O)CN1; NMeF = CN[C@@H](Cc1ccccc1)C(=O)O; NMeNle = CCCC[C@H](NC)C(=O)O; dNle = CCCC[C@@H](N)C(=O)O; dPip = O=C(O)[C@H]1CCCCN1; NMeA = CN[C@@H](C)C(=O)O; Orn = NCCC[C@H](N)C(=O)O; dThz = O=C(O)[C@H]1CSCN1; Dab = NCC[C@H](N)C(=O)O; Dap = NC[C@H](N)C(=O)O; ξC = NC(CS)C(=O)O; Sar = CNCC(=O)O

Each compound was assayed against T1, Human PD-L1/PD-1 (Homo sapiens, UniProt Q9NZQ7) (assay: HTRF Human PD-L1/PD-1 binding assay (PD-1-Ig/PD-L1-His)). Conditions: PD-L1-His 10 nM, PD-1-Ig 20 nM; class symbol; read-out: HTRF Human PD-L1/PD-1 Binding Assay IC50 Range.
T1 construct: TVMV protease cleavage site (C); made in house; host or cells: HEK293T cells
How it was run: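 Compound preincubated 15 min with PD-L1-His (10 nM final), then PD-1-Ig (20 nM final) added for 15 min in dPBS with 0.1% BSA and 0.05% Tween-20. Detection by Eu-cryptate anti-Ig (1 nM) and APC anti-His (20 nM) after 30 min; 665/620 nm HTRF ratio. Proteins expressed in HEK293T.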

T1 sequence (Q9NZQ7 with tags, fused parts or gaps): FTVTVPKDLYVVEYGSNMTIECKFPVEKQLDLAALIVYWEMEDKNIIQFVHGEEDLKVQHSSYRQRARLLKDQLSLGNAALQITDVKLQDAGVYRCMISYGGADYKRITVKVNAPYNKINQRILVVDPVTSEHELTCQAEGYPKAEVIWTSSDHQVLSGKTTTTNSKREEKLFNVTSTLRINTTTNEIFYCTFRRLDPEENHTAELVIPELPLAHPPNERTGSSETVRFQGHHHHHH

SMILES | IC50
CCCC[C@H]1C(=O)N(C)[C@@H](CCCC)C(=O)N[C@@H](CCC(=O)O)C(=O)N[C@H](C(=O)NCC(N)=O)CSCC(=O)N[C@@H](Cc2ccc(O)cc2)C(=O)N(C)[C@@H](C)C(=O)N[C@@H](CC(=O)O)C(=O)N2CCC[C@H]2C(=O)N[C@@H](CO)C(=O)N[C@@H](CCC(N)=O)C(=O)N2C[C@H](O)C[C@H]2C(=O)N[C@@H](Cc2c[nH]c3ccccc23)C(=O)N[C@@H](CO)C(=O)N[C@@H](Cc2c[nH]c3ccccc23)C(=O)N1C [Example 5214] ({CH2CO}-Y[NMeA]DPSQ[Hyp]WSW[NMeNle][NMeNle]ECG-NH2; thioether N-14) | 1 to 9.9 nM
CCCC[C@H]1C(=O)N(C)[C@@H](CCCC)C(=O)N[C@@H](CC(C)C)C(=O)N[C@H](C(=O)NCC(N)=O)CSCC(=O)N[C@@H](Cc2ccc(O)cc2)C(=O)N(C)[C@@H](C)C(=O)N[C@@H](CC(N)=O)C(=O)N2CCC[C@H]2C(=O)N[C@@H](CN)C(=O)N[C@@H](CC(C)C)C(=O)N2CCC[C@H]2C(=O)N[C@@H](Cc2c[nH]c3ccccc23)C(=O)N[C@@H](CCN)C(=O)N[C@@H](Cc2ccc(O)cc2)C(=O)N1C [Example 6272] ({CH2CO}-Y[NMeA]NP[Dap]LPW[Dab]Y[NMeNle][NMeNle]LCG-NH2; thioether N-14) | 1 to 9.9 nM
CCCC[C@H]1C(=O)N(C)[C@@H](CCCC)C(=O)N[C@@H](CC(C)C)C(=O)N[C@H](C(=O)NCC(N)=O)CSCC(=O)N[C@@H](Cc2ccc(OC)cc2)C(=O)N(C)[C@@H](C)C(=O)N[C@@H](CC(=O)O)C(=O)N2CCC[C@H]2C(=O)N[C@@H](Cc2cnc[nH]2)C(=O)N[C@@H](CCCCN)C(=O)N2C[C@H](O)C[C@@H]2C(=O)N[C@@H](Cc2c[nH]c3ccccc23)C(=O)N[C@@H](CCCCN)C(=O)N[C@@H](Cc2cn(CC(=O)O)c3ccccc23)C(=O)N1C [Example 7154] ({CH2CO}-Y(Me)[NMeA]DPHK[d(cisHyp)]WK[Trp(1-CH2COOH)][NMeNle][NMeNle]LCG-NH2; thioether N-14) | 10 to 99.9 nM

Results, then the compound that gave them:

IC50 | SMILES
100 to 990 nM | CCCC[C@H]1C(=O)N(C)CC(=O)N[C@@H](CC(=O)O)C(=O)N[C@@H](C)C(=O)N(C)[C@@H](Cc2ccccc2)C(=O)N[C@@H](Cc2ccc(O)cc2)C(=O)N2CSC[C@@H]2C(=O)N[C@@H](Cc2c[nH]c3ccccc23)C(=O)N[C@@H](Cc2ccc(O)cc2)C(=O)N[C@@H](CC(C)C)C(=O)N[C@H](C(=O)NCC(N)=O)CSCC(=O)N[C@@H](Cc2ccccc2)C(=O)N(C)[C@@H](Cc2ccccc2)C(=O)N1C [Example 10082] ({CH2CO}-F[NMeF][NMeNle][Sar]DA[NMeF]Y[dThz]WYLCG-NH2; thioether N-13)
100 to 990 nM | CCCC[C@H]1NC(=O)[C@H](Cc2csc3ccccc23)NC(=O)[C@H](CO)NC(=O)[C@H](Cc2c[nH]c3ccccc23)NC(=O)[C@@H]2C[C@@H](O)CN2C(=O)[C@H](CC(C)C)NC(=O)[C@H](Cc2cnc[nH]2)NC(=O)[C@@H]2CCCN2C(=O)[C@H](CC(N)=O)NC(=O)[C@H](C)N(C)C(=O)[C@H](Cc2ccc(O)cc2)NC(=O)CSCC(C(=O)NCC(N)=O)NC(=O)[C@H](CCCNC(=N)N)NC(=O)[C@H](CCCC)N(C)C1=O (stereo partly drawn) [Example 10123] ({CH2CO}-Y[NMeA]NPHL[Hyp]WS[Bta][dNle][NMeNle]R[ξC]G-NH2; thioether N-14)
1000 to 10000 nM | CCCC[C@H]1C(=O)N2CCC[C@@H]2C(=O)N[C@@H](CC(=O)O)C(=O)N[C@@H](C(C)C)C(=O)N(C)[C@@H](C(C)CC)C(=O)N[C@@H](CCC(N)=O)C(=O)N2CCCC[C@@H]2C(=O)N[C@@H](Cc2c[nH]c3ccccc23)C(=O)N[C@@H](Cc2ccc(O)cc2)C(=O)N[C@@H](CCCN)C(=O)N[C@H](C(=O)NCC(N)=O)CSCC(=O)N[C@@H](Cc2ccc(F)cc2)C(=O)N(C)[C@@H](Cc2ccccc2)C(=O)N1C (stereo partly drawn) [Example 9263] ({CH2CO}-[Phe(4-F)][NMeF][NMeNle][dP]DV[NMeIle(3ξ)]Q[dPip]WY[Orn]CG-NH2; thioether N-13)
